Source: patent publication US9365857B2, “Xylose isomerase and xylitol dehydrogenase combination for xylose fermentation to ethanol and B. fragilis xylose isomerase” (Archer Daniels Midland Company, priority 2010, dated 2016)

How the values were obtained:
E. coli xylose isomerase = E. coli xylose isomerase (Escherichia coli, UniProt P00944); assay: xylitol inhibition of xylose isomerase activity (E. coli XI); format: biochemical; conditions: read-out: E. coli XI activity inhibited
Procedure: (§1) Activity is reported as the percent of activity obtained in the absence of xylitol.
(§2) A distinguishing feature of the B. fragilis isomerases described herein is that enzymes are less inhibited by xylitol than orthologue XI sequences from other organism. […] ID NO: 4 in comparison to its E. coli orthologue. At 12.5 mM xylitol, the E. coli XI activity is >97% inhibited, in contrast to the B. fragilis XI, which retains at least 30% of its activity at the same xylitol concentration.

[1] = target: T1, B. fragilis xylose isomerase (SEQ. ID NO: 4) (Bacteroides fragilis, UniProt Q5LCV9); assay: xylitol inhibition of xylose isomerase activity (B. fragilis XI, SEQ. ID NO: 4); format: biochemical; conditions: 12.5 mM xylitol; percent of activity obtained in the absence of xylitol
T1 construct: ID NO: 4 in comparison to its E. coli orthologue
Procedure: as §1, §2

E. coli xylose isomerase, sequence (P00944 whole entry): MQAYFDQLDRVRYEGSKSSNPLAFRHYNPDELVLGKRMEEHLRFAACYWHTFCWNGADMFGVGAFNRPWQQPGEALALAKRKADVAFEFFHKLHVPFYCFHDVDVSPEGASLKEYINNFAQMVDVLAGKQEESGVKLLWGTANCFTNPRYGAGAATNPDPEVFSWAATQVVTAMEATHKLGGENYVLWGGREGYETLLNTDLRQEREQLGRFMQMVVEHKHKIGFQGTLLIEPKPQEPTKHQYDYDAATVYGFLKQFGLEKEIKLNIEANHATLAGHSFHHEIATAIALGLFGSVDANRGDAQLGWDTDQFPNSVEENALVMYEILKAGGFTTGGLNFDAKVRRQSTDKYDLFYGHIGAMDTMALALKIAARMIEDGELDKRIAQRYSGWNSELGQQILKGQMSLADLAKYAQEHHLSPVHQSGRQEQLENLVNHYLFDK
T1 sequence (Q5LCV9 whole entry, looked up, natural form): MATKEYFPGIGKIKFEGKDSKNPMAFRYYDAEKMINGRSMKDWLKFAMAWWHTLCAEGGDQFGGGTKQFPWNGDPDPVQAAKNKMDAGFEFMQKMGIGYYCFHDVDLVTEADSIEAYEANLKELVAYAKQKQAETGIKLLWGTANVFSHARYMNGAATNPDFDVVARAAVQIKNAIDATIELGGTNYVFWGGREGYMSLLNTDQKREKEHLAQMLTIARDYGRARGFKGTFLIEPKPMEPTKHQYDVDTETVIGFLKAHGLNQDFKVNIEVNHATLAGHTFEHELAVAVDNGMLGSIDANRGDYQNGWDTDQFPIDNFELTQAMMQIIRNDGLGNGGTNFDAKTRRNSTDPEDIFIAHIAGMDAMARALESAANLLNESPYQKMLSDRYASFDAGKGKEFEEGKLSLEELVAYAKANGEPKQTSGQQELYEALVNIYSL

OC[C@@H](O)[C@H](O)[C@@H](O)CO [xylitol]
inhibition at 12500 µM (E. coli xylose isomerase): > 97%
B. fragilis XI activity retained [1]: at least 30%
